As usually defined, the EC50 is the concentration needed to bring the measured effect to its halfway point.

This is an account of results in patent US9850227B2 (YUHAN CORPORATION, priority 2011, dated 2017).

Structures can show the parent of a compound that is named as a salt.

T1 sequence (Q13639 1-387 isoform Q13639-2): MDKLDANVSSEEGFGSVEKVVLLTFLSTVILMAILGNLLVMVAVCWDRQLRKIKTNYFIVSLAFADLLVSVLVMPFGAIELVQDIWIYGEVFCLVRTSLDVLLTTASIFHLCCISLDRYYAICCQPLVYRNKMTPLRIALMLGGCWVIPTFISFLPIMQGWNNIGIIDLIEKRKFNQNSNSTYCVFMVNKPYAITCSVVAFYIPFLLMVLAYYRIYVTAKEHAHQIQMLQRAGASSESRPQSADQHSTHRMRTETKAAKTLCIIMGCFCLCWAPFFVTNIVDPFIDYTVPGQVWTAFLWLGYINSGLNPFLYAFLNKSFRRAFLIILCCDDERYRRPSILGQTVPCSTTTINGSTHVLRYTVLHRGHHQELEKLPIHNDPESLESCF

This test addresses T1, human 5-HT4(a) (Homo sapiens, UniProt Q13639).
T1 construct: host or cells: GeneBIAzer HTR4-CRE-bla CHO-K1 cells
Nature of the test: Evaluation of agonistic activity in CHO-K1 cells expressing human 5-HT4(a) (GeneBIAzer HTR4-CRE-bla CHO-K1 cells, beta-lactamase fluorescence ratio, EC50 from 8 concentrations). It counts as cell-based. The method, then:
Evaluation of Agonistic Activity in CHO-K1 Cells Expressing Human 5-HT4(a)
As CHO-K1 cells stably expressing human 5-HT4(a), we used the GeneBIAzer HTR4-CRE-bla CHO-K1 cells (Invitrogen Corp.). The cells were cultured, under the condition of 37° C. and 5% CO2, in a DMEM supplemented with 10% fetal bovine serum (FBS), 25 mM HEPES (pH7.4), 600 μg/ml hygromycin B, 0.1 mM non-essential amino acids, 100 unit/ml penicillin and 100 μg/ml streptomycin. Subcultures were performed three times per one week, each being at less than 80% confluence. At the previous day before treating test compounds, the cells were collected using 0.5% trypsin/EDTA and then diluted with a DMEM supplemented with 1% FBS, 25 mM HEPES, and 0.1 mM non-essential amino acids into 3.125×10^5 cells/ml. 32 μl of the diluted cells were added into 384-well plate (10^4 cells per well) and then incubated overnight. After the overnight culture, 8 μl of the medium having 1% of DMSO was added into the cell-free control well and the non-stimulating control well, respectively. 8 μl of the respective test compound dilutions (which had been prepared by diluting by 100-times with the medium as mentioned in the above) having 1% of DMSO were added to the respective remaining wells. After being cultured in the incubator for 5 hours, the wells of the 384-plate were treated with the substrate solution (8 μl per well) prepared according to the vendor's instruction (i.e., Invitrogen's instruction), and then incubated in the dark room for additional two hours. Agonistic activities on 5-HT4 receptor were evaluated, on the basis of fluorescence values of the cleavage-products by beta-lactamase. After exciting to 410 nm of wavelength using a fluorescence detector (Genios Pro), we measured the fluorescence values at two emission wavelengths (first wavelength: 465 nm, second wavelength: 535 nm). Data were analyzed on the basis of the ratio of fluorescence intensities of each well at the respective wavelengths. Each EC50 value was calculated by non-linear regression analysis using the “GraphPad Prism” program, based on the activities according to 8-different concentrations of the test compounds.
Turning to `CCCc1cc(N2CCCC3CCCCC32)nc(Nc2cccc(C#N)c2)n1` (stereo not shown) [Example 187, 3-[4-(octahydroquinolin-1(2H)-yl)-6-propylpyrimidin-2-ylamino]benzonitrile], the concentration for a half-maximal effect (EC50) worked out at 0.24 nM.

Consider `CCCc1cc(N2CCCC3CCCCC32)nc(Nc2cccc([N+](=O)[O-])c2)n1` (stereo not shown) [Example 188, N-(3-nitrophenyl)-4-(octahydroquinolin-1(2H)-yl)-6-propylpyrimidin-2-amine], for which the 50% effective concentration (EC50) stood at 0.43 nM.

For `CCCc1cc(N2CCCC3CCCCC32)nc(Nc2ccc(F)c([N+](=O)[O-])c2)n1` (stereo not shown) [Example 189, N-(4-fluoro-3-nitrophenyl)-4-(octahydroquinolin-1(2H)-yl)-6-propylpyrimidin-2-amine], the EC50 was 0.32 nM.

With `CCCc1cc(N2CCCC3CCCCC32)nc(Nc2ccc(Cl)c([N+](=O)[O-])c2)n1` (stereo not shown) [Example 190, N-(4-chloro-3-nitrophenyl)-4-(octahydroquinolin-1(2H)-yl)-6-propylpyrimidin-2-amine], the EC50 turned out to be 0.46 nM.

As for `CCCc1cc(N2CCCC3CCCCC32)nc(Nc2cccc(OC)c2)n1` (stereo not shown) [Example 191, N-(3-methoxyphenyl)-4-(octahydroquinolin-1(2H)-yl)-6-propylpyrimidin-2-amine], the concentration giving a half-maximal response (EC50) was found to be 0.34 nM.

As for `CCCc1cc(N2CCCC3CCCCC32)nc(Nc2cccc(SC)c2)n1` (stereo not shown) [Example 198, N-(3-methylthiophenyl)-4-(octahydroquinolin-1(2H)-yl)-6-propylpyrimidin-2-amine], the EC50 was determined as 0.4 nM.

`CCCc1cc(N2CCCC3CCCCC32)nc(Nc2ccc3[nH]c(C(F)(F)F)nc3c2)n1` (stereo not shown) [Example 200, N-[4-(octahydroquinolin-1(2H)-yl)-6-propylpyrimidin-2-yl]-2-(trifluoromethyl)-1H-benzo[d]imidazol-5-amine]: the concentration for a half-maximal effect (EC50) amounted to 0.18 nM.

For the molecule `CCCc1cc(N2CCCC3CCCCC32)nc(Nc2cnc3ccccc3c2)n1` (stereo not shown) [Example 203, N-[4-(octahydroquinolin-1(2H)-yl)-6-propylpyrimidin-2-yl]quinolin-3-amine], the EC50 worked out at 0.14 nM.

Take `CCCc1cc(N2CCC[C@@H](NCC)C2)nc(Nc2ccc(C)c(C#N)c2)n1` [Example 205, (R)-5-{4-[3-(ethylamino)piperidin-1-yl]-6-propylpyrimidin-2-ylamino}-2-methylbenzonitrile]: the EC50 turned out to be 0.008 nM.

Regarding `CCCN[C@@H]1CCCN(c2cc(CCC)nc(Nc3ccc(C)c(C#N)c3)n2)C1` [Example 206, (R)-5-{4-[3-(propylamino)piperidin-1-yl]-6-propylpyrimidin-2-ylamino}-2-methylbenzonitrile], the EC50 is 0.0087 nM.

Regarding `CCCCN[C@@H]1CCCN(c2cc(CCC)nc(Nc3ccc(C)c(C#N)c3)n2)C1` [Example 207, (R)-5-{4-[3-(butylamino)piperidin-1-yl]-6-propylpyrimidin-2-ylamino}-2-methylbenzonitrile], the concentration for a half-maximal effect (EC50) worked out at 0.013 nM.

As for `CCCCCN[C@@H]1CCCN(c2cc(CCC)nc(Nc3ccc(C)c(C#N)c3)n2)C1` [Example 208, (R)-2-methyl-5-{4-[3-(pentylamino)piperidin-1-yl]-6-propylpyrimidin-2-ylamino}benzonitrile], the EC50 came out at 0.029 nM.

As for `CCCc1cc(N2CCC[C@@H](NCC(C)C)C2)nc(Nc2ccc(C)c(C#N)c2)n1` [Example 209, (R)-5-{4-[3-(isobutylamino)piperidin-1-yl]-6-propylpyrimidin-2-ylamino}-2-methylbenzonitrile], the half-maximal effective concentration (EC50) is 0.015 nM.

Take `CCCc1cc(N2CCC[C@@H](NCCC(C)C)C2)nc(Nc2ccc(C)c(C#N)c2)n1` [Example 210, (R)-5-{4-[3-(isopentylamino)piperidin-1-yl]-6-propylpyrimidin-2-ylamino}-2-methylbenzonitrile]: the EC50 amounted to 0.022 nM.

For `CCCc1cc(N2CCC[C@@H](NCC(C)(C)C)C2)nc(Nc2ccc(C)c(C#N)c2)n1` [Example 211, (R)-2-methyl-5-{4-[3-(neopentylamino)piperidin-1-yl]-6-propylpyrimidin-2-ylamino}benzonitrile], the EC50 is 0.023 nM.

In the case of `CCCc1cc(N2CCC[C@@H](NC(C)C)C2)nc(Nc2ccc(C)c(C#N)c2)n1` [Example 212, (R)-5-{4-[3-(isopropylamino)piperidin-1-yl]-6-propylpyrimidin-2-ylamino}-2-methylbenzonitrile], the EC50 is 0.1 nM.

Take `CCCc1cc(N2CCC[C@@H](NCc3cccs3)C2)nc(Nc2ccc(C)c(C#N)c2)n1` [Example 214, (R)-2-methyl-5-(4-propyl-6-{3-[(thiophen-2-ylmethyl)amino]piperidin-1-yl}pyrimidin-2-ylamino)benzonitrile]: the half-maximal effective concentration (EC50) was found to be 0.072 nM.

On to `CCCc1cc(N2CCC[C@@H](NCc3cc(C)c(C)o3)C2)nc(Nc2ccc(C)c(C#N)c2)n1` [Example 215, (R)-5-(4-{3-[(4,5-dimethylfuran-2-ylmethyl)amino]piperidin-1-yl}-6-propylpyrimidin-2-ylamino)-2-methylbenzonitrile], for which the EC50 amounted to 0.064 nM.

Take `CCCc1cc(N2CCC[C@@H](NCCCSC)C2)nc(Nc2ccc(C)c(C#N)c2)n1` [Example 216, (R)-2-methyl-5-{4-[3-(3-methylthiopropylamino)piperidin-1-yl]-6-propylpyrimidin-2-ylamino}benzonitrile]: the EC50 stood at 0.016 nM.

On to `CCCc1cc(N2CCC[C@@H](NCC3CC3)C2)nc(Nc2ccc(C)c(C#N)c2)n1` [Example 217, (R)-5-{4-[3-(cyclopropylmethylamino)piperidin-1-yl]-6-propylpyrimidin-2-ylamino}-2-methylbenzonitrile], for which the EC50 was found to be 0.013 nM.

Consider `CCCc1cc(N2CCC[C@@H](NCC3CCCC3)C2)nc(Nc2ccc(C)c(C#N)c2)n1` [Example 218, (R)-5-{4-[3-(cyclopentylmethylamino)piperidin-1-yl]-6-propylpyrimidin-2-ylamino}-2-methylbenzonitrile], for which the EC50 worked out at 0.016 nM.

Turning to `CCCc1cc(N2CCC[C@@H](NCc3ccc(O)cc3)C2)nc(Nc2ccc(C)c(C#N)c2)n1` [Example 219, (R)-5-{4-[3-(4-hydroxybenzylamino)piperidin-1-yl]-6-propylpyrimidin-2-ylamino}-2-methylbenzonitrile], the half-maximal effective concentration (EC50) is 0.01 nM.

On to `CCCc1cc(N2CCC[C@@H](NC(C)=O)C2)nc(Nc2ccc(C)c(C#N)c2)n1` [Example 220, (R)—N-{1-[2-(3-cyano-4-methylphenylamino)-6-propylpyrimidin-4-yl]piperidin-3-yl}acetamide], for which the EC50 turned out to be 0.0082 nM.

Consider `CCCc1cc(N2CCC[C@@H](N)C2)nc(Nc2cccc(C#N)c2)n1` [Example 221, (R)-3-[4-(3-aminopiperidin-1-yl)-6-propylpyrimidin-2-ylamino]benzonitrile dihydrochloride], for which the EC50 was 0.122 nM.

As to `CCCc1cc(N2CCC[C@@H](N)C2)nc(Nc2ccc(F)c(C#N)c2)n1` [Example 222, (R)-5-[4-(3-aminopiperidin-1-yl)-6-propylpyrimidin-2-ylamino]-2-fluorobenzonitrile dihydrochloride], the EC50 was determined as 0.056 nM.

For `CCCN[C@@H]1CCCN(c2cc(CCC)nc(Nc3cccc(C#N)c3)n2)C1` [Example 223, (R)-3-{4-[3-(propylamino)piperidin-1-yl]-6-propylpyrimidin-2-ylamino}benzonitrile], the half-maximal effective concentration (EC50) is 0.045 nM.

Consider `CCCc1cc(N2CCC[C@@H](NCC3CC3)C2)nc(Nc2cccc(C#N)c2)n1` [Example 224, (R)-3-{4-[3-(cyclopropylmethylamino)piperidin-1-yl]-6-propylpyrimidin-2-ylamino}benzonitrile], for which the concentration for a half-maximal effect (EC50) came out at 0.07 nM.

As for `CCCN[C@@H]1CCCN(c2cc(CCC)nc(Nc3ccc(F)c(C#N)c3)n2)C1` [Example 225, (R)-2-fluoro-5-{4-[3-(propylamino)piperidin-1-yl]-6-propylpyrimidin-2-ylamino}benzonitrile], the 50% effective concentration (EC50) was found to be 0.021 nM.

In the case of `CCCc1cc(N2CCC[C@@H](NCC3CC3)C2)nc(Nc2ccc(F)c(C#N)c2)n1` [Example 226, (R)-5-{4-[3-(cyclopropylmethylamino)piperidin-1-yl]-6-propylpyrimidin-2-ylamino}-2-fluorobenzonitrile], the EC50 amounted to 0.071 nM.

Turning to `CCCc1cc(N2CCC[C@@H](NCC3CC3)C2)nc(Nc2ccc(F)c(N)c2)n1` [Example 227, (R)—N^1-{4-[3-(cyclopropylmethylamino)piperidin-1-yl]-6-propylpyrimidin-2-yl}-4-fluorobenzene-1,3-diamine], the EC50 turned out to be 0.017 nM.

As for `CCCc1cc(N2CCC[C@@H](NCC3CC3)C2)nc(Nc2ccc(N)c([N+](=O)[O-])c2)n1` [Example 228, (R)—N^1-{4-[3-(cyclopropylmethylamino)piperidin-1-yl]-6-propylpyrimidin-2-yl}-3-nitrobenzene-1,4-diamine], the concentration for a half-maximal effect (EC50) is 0.0035 nM.
